Laboratory results reported in patent US20210179940A1, “WIDE TEMPERATURE RANGE AND HIGH PHOTOCHEMICAL STABILITY SMECTIC LIQUID CRYSTAL COMPOSITIONS WITH A MONOLAYER SMECTIC A PHASE (SMA1), METHOD OF OBTAINING THEREOF AND DEVICES UTILIZING THEREOF” (WOJSKOWA AKADEMIA TECHNICZNA, priority 2017, published 2021).
Read-outs that look alike come from different tables or passages of the source.

What was measured:
[1] = conductivity of doped smectic A composition 18 in 15 μm cell; type: physicochemical; conditions: prepared in fluorobenzene, 100 Hz, RT
Excerpt: The glass cells with a gap of 15 μm filled with the liquid crystal composition were used to measure conductivity and such a parameters of the DS effect as threshold voltage and saturation voltage. […] The orienting layer providing a homeotropic orientation of the molecular director of the smectic composition was obtained using a thin layer of SE1211 (by Nissan Chem.) polyimide, which was deposited on ITO electrodes with a spincoating method, then dried and cured. The testing cells were filled with the liquid crystals composition from the isotropic phase, and they were cooled to the room temperature (RT) and closed.
The components were carefully mixed and then heated to temperature of 90° C. to evaporate the solvent. Then heating was continued under lower pressure (at 0.2 mmHg) for the total removal of the solvent and the composition was carefully mixed by shaking it at the isotropic state. […]

[2] = solubility of ionic compounds in fluorobenzene
Experimental: Fluorobenzene was used as solvent because it is chemically similar to the liquid crystalline composition used here.
The examination was made in the following way: always the same mole amount of a ionic compound (0.00004 mol) was placed in 2 cm^3 of fluorobenzene. The mixture was mixed to dissolve the compound or to obtain equilibrium between the saturated solution and the solid. When a part of the compound was dissolved only, the sample of the saturated solution was taken (0.5 ml). The solvent was evaporated to dryness, the rest was weighted. Knowing the residue amount, the solubility was calculated.

[3] = resistivity of fluorobenzene solutions of ionic compounds (bridge method); type: physicochemical; conditions: for resistivity 10 kHz / resistivity 50 Hz: solution in C6H5F, 25° C.
Experimental: The resistivity of the solution was measured by the bridge method using a Wyne Kerr Precision Component Analyzer 6425 and the measuring cells with electrodes of active area of 12.7 mm×12.7 mm. The electrodes were made of ITO. No orienting layers were deposited. The cell formed with two substrates with electrodes mentioned above was filled with the solution by capillary forces. The gap between electrodes was approx. 14.6 μm.

[4] = solubility in organic solvents noted at synthesis; type: physicochemical; conditions: solvents named in the value
[5] = conductivity of doped smectic A composition 21 in 15 μm cell; type: physicochemical; conditions: RT
Excerpt: The glass cells with a gap of 15 μm filled with the liquid crystal composition were used to measure conductivity and such a parameters of the DS effect as threshold voltage and saturation voltage. Transparent electrodes were formed from indium-tin oxide (ITO) of specific resistivity 100 Ohm/cm^2 and with surface 1.27×1.27 cm^2. The orienting layer providing a homeotropic orientation of the molecular director of the smectic composition was obtained using a thin layer of SE1211 (by Nissan Chem.) polyimide, which was deposited on ITO electrodes with a spincoating method, then dried and cured. The testing cells were filled with the liquid crystals composition from the isotropic phase, and they were cooled to the room temperature (RT) and closed.
In Table 6 the properties of the composition 21 doped with an amidinium salt or potassium complex of a crown ether are compared. The composition 21 has the phase sequence Cr-SmA1-N-Iso and the higher value of dielectric anisotropy than composition 18.

[6] = composition 18, dopant 6.58 · 10^−3 mol/kg
[7] = composition 18, dopant 8.78 · 10^−3 mol/kg
[8] = composition 21, dopant 6.58 · 10^−3 mol/kg, f = 100 Hz

Compound | solubility in C6H5F ([2]; fluorobenzene, 25° C.) [mol/dcm^3] | conductivity σ [1, 7] | resistivity 10 kHz [3] | resistivity 50 Hz [3] | solubility in C6H5F [2] | other results
complex of 18-crown-6 ether with potassium bromide [IIIb] |  |  |  |  |  | conductivity σ [1, 6]: 1.1 · 10^−9 Ohm^−1cm^−1
N#Cc1c(F)cc([O-])cc1F.[K+].c1ccc2c(c1)OCCOCCOc1ccccc1OCCOCCO2 [IVn, complex of dibenzo-18-crown-6 ether with potassium 3,5-difluoro-4-cyanophenolate] | >0.02 | 8.1 · 10^−9 Ohm^−1cm^−1 | 4.6 · 10^5 Ohm · cm | 4.2 · 10^5 Ohm · cm |  | conductivity σ ([1]; composition 18, dopant 2.19 · 10^−3 mol/kg): 2.19 · 10^−9 Ohm^−1cm^−1
CCCCCCCCCCCCCCCC[N+](C)(C)C.[Br-] [I.16b, hexadecyltrimethylammonium bromide, reference compound] |  |  | 5.2 · 10^7 Ohm · cm | 5.0 · 10^7 Ohm · cm | 0.00274 mol/dcm^3 | solubility compared with the ionic compounds of the disclosure [2]: lower at least ten times
CC[N+]12CCCCCC1=NCCC2.[Br-] (stereo not shown) [II.2b, 1-ethyl-1,8-diazabicyclo[5.4.0] undec-7-enium bromide] | 0.0077 |  |  |  |  | conductivity σ [1, 6]: 3.0 · 10^−9 Ohm^−1cm^−1; solubility [4]: well soluble in ethanol and ethyl acetate
CCCCCCCCCCCCc1ccc(S(=O)(=O)[O-])cc1.[K+].c1ccc2c(c1)OCCOCCOc1ccccc1OCCOCCO2 [IVg12, Complex of dibenzo-18-crown-6 ether with potassium 4-dodecylbenzenesulphonate] | >0.02 | 2.7 · 10^−10 Ohm^−1cm^−1 | 4.5 · 10^5 Ohm · cm | 6.0 · 10^5 Ohm · cm |  | specific conductivity σ [5, 8]: 4.68 · 10^−10 Ohm^−1cm^−1
[K+].[O-]c1ccc(F)c(F)c1.c1ccc2c(c1)OCCOCCOc1ccccc1OCCOCCO2 [IVk, complex of dibenzo-18-crown-6 ether with potassium 3,4-difluorophenolate] | > 0.02 | 4.1 · 10^−9 Ohm^−1cm^−1 | 0.95 · 10^6 Ohm · cm | 1.1 · 10^6 Ohm · cm |  | 
CCCCCCCCc1ccc([O-])cc1.[K+].c1ccc2c(c1)OCCOCCOc1ccccc1OCCOCCO2 [IVh8, complex of dibenzo-18-crown-6 ether with potassium 4-octylphenolate] | 0.0107 | 1.4 · 10^−10 Ohm^−1cm^−1 |  |  |  | 
complex of dibenzo-18-crown-6 ether with potassium chlorate (VII) [IVc] | < 0.002 | 1.5 · 10^−10 Ohm^−1cm^−1 | 2.9 · 10^7 Ohm · cm | 4.2 · 10^7 Ohm · cm |  | resistivity ([3]; solution in fluorobenzene, frequency not stated): 4.2·10^7 Ohm·cm
CCCCCCCCCCCCCCCC[N+]1=C2CCCCCN2CCC1 [II.16c, 1-Hexadecyl-1,8-diazabicyclo[5.4.0]undec-7-enium chlorate (VII)] |  | 4.6 · 10^−10 Ohm^−1cm^−1 | 0.84 · 10^6 Ohm · cm | 1.0 · 10^6 Ohm · cm | >0.02 >0.02 >0.02 >0.02 mol/dcm^3 | solubility [4]: well soluble in methanol and ethyl acetate
C1COCCOCCOCCOCCOCCO1.CCCCCCCCCCCCc1ccc(S(=O)(=O)[O-])cc1.[K+] [III.g12, complex of 18-crown-6 ether with potassium 4-dodecylbenzenesulphonate] | >0.02 |  |  |  |  | specific conductivity σ ([5]; composition 21, 0.1 wt % dopant + 0.3 wt % stabilizer of formula 29, f = 100 Hz): 7.0 · 10^−9 Ohm^−1cm^−1
CCCCCCCCCCCCCCCC[N+]1=C2CCCCCN2CCC1 [II.16d, 1-hexadecyl-1,8-diazabicyclo[5.4.0]undec-7-enium 1,1,1-trifluoromethanesulphonate] |  |  |  |  | >0.02 >0.02 >0.02 >0.02 mol/dcm^3 | 
C1COCCOCCOCCOCCOCCO1.[K+].[O-]c1ccc(F)c(F)c1 [IIIk, complex of 18-crown-6 ether with potassium 3,4-difluorophenolate] | > 0.02 |  |  |  |  | conductivity σ [1, 6]: 2.7 · 10^−9 Ohm^−1cm^−1; conductivity σ ([1]; composition 18, dopant 6.58 · 10^−3 mol/kg, listed as III.k): 2.7·10^−9 Ohm^−1cm^−1
1-hexadecyl-1,8-diazabicyclo[5.4.0]undec-7-enium 3,4-difluorophenolate [II.16k] |  |  |  |  | >0.02 >0.02 >0.02 >0.02 mol/dcm^3 | 
1-hexadecyl-1,8-diazabicyclo[5,4,0]undec-7-enium 3,5-difluoro-4-cyanophenolate [II.16n] |  | 1.8 · 10^−8 Ohm^−1cm^−1 | 3.8 · 10^5 Ohm · cm | 3.9 · 10^5 Ohm · cm | >0.02 mol/dcm^3 | resistivity of I.16b, times higher than that of the compound ([3]; solution in fluorobenzene): 140 times
1-hexadecyl-1,8-diazabicyclo[5.4.0]undec-7-enium 4-dodecylbenzenesulphonate [II.16g12] | >0.02 | 1.1 · 10^−9 Ohm^−1cm^−1 | 1.9 · 10^6 Ohm · cm | 2.1 · 10^6 Ohm · cm |  | specific conductivity σ [5, 8]: 7.42 · 10^−10 Ohm^−1cm^−1
complex of 18-crown-6 ether with sodium dodecyl-1-sulphonate [V.e12] |  |  |  |  |  | conductivity σ [1, 6]: 3.7 · 10^−10 Ohm^−1cm^−1
complex of dibenzo-18-crown-6 ether with potassium bromide [IVb] |  |  |  |  |  | conductivity σ [1, 6]: 2.2 · 10^−10 Ohm^−1cm^−1
CCCCCCCCCCCCCCCC[N+]1=C2CCCCCN2CCC1 [II.16b, 1-hexadecyl-1,8-diazabicyclo[5.4.0]undec-7-enium bromide] |  |  |  |  | >0.02 >0.02 >0.02 >0.02 mol/dcm^3 | solubility [4]: well soluble in methanol and chloroform
